Common to all, as to format: cell-based
For assay [1], the system named is KRAS G12D mutant human lung cancer cell A427. As to the kind of experiment: 3D cell proliferation inhibition assay, A427. As to conditions: A-427, 168 h, 3D culture, 7 days, CTG. In short, it runs like this: (§1)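 Seven-day 3D growth at 37 °C in low-adsorption wells, 5×10^2 cells/well except MKN1 (1×10^3), final compound range 10000–0.026 nM in 0.2% DMSO. CTG luminescence read-out; percent inhibition set against DMSO and medium-only wells, IC50 by curve fitting.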

Assay [2] concerns KRAS WT human gastric cancer cell MKN1. As to the kind of experiment: 3D cell proliferation inhibition assay, MKN1. As to conditions: MKN-1, 168 h, 3D culture, 7 days, CTG. In short, it runs like this: as §1
Assay [3] concerns KRAS G12V mutant human lung squamous carcinoma cell SW900. As to the kind of experiment: 3D cell proliferation inhibition assay, SW900. As to conditions: SW900, 168 h, 3D culture, 7 days, CTG.
The subject of assay [4] is KRAS G12V mutant human colorectal cancer cell SW620. As to the kind of experiment: 3D cell proliferation inhibition assay, SW620. As to conditions: SW-620, 168 h, 3D culture, 7 days, CTG. In short, it runs like this: as §1
Assay [5] deals with KRAS G12C mutant human non-small cell lung cancer cell NCI-H358. As to the kind of experiment: 3D cell proliferation inhibition assay, NCI-H358. As to conditions: NCI-H358, 168 h, 3D culture, 7 days, CTG. In short, it runs like this:
as §1

Assay [6] deals with T1, KRAS G12D protein in AsPc-1 cells (Homo sapiens, UniProt P01116, G12D).
T1 construct: endogenous in cells; host or cells: AsPc-1
As to the kind of experiment: KRAS degradation assay (Western Blot) in AsPc-1 cells. As to conditions: for DC50: 24 h; for Dmax: ASPC1, 24 h. From the text: (§2) Test Example 5: KRAS G12C, KRAS G12D, KRAS G12V, KRAS G13D, and KRAS WT (Expanded) Degradation Assays
(§3) The degradation effect of the compounds on KRAS was investigated on KRAS G12C mutant human non-small cell lung cancer cell NCI-H358, KRAS G12D mutant human metastatic pancreatic cancer cell AsPc-1, KRAS G12D mutant human lung cancer cell A427, KRAS G12V mutant human colorectal cancer cell SW620, KRAS G12V mutant human lung cancer cell SW900, KRAS G13D mutant human colorectal cancer epithelial cell DLD-1, and KRAS WT human gastric cancer cell MKN-1. The specific procedures were as follows: 0.95 mL of cells were seeded into each well of a 24-well cell culture plate to achieve a cell density of 5×10^5 cells/well; and the cell plate was incubated in an incubator at 37° C. with 5% CO2 overnight. Then 50 μL of the compound solution after dilution was added to each of the wells with the corresponding cells, so that the final concentration of the compound was in a range of 0.03-3000 nM. The final concentration of DMSO was 0.25%. After the compounds were added, the cell plate was incubated in an incubator at 37° C. with 5% CO2 for 24 h. The culture medium in the 24-well cell culture plate was then removed, and the plate was washed twice with 1×PBS (KeyGEN). 120 μL of RIPA (strong) lysis buffer (Beyotime) (supplemented with 1 mM phenylmethylsulfonyl fluoride, a protease inhibitor mixture (Beyotime), and a protease phosphatase inhibitor mixture (Beyotime)) was added to lyse adherent SW900 cells at the bottom of the cell culture plate. After the plate was left to stand on ice for 30 min, the protein lysate in each well was transferred to a 1.5 mL centrifuge tube and centrifuged at 15000 g for 20 min at 4° C. The cell lysate supernatants after centrifugation were cryopreserved in a refrigerator at −80° C. for later use.
(§4) After the samples of the cell lysate supernatants that had been prepared were thawed from the refrigerator at −80° C., the total protein concentrations of the cell lysates were determined using a BCA protein quantification kit (Tiangen). The total protein concentrations of the samples were then adjusted to 0.5 μg/μL with PBS and 5×SDS-PAGE protein loading buffer (Beyotime), and the samples were incubated in a water bath at 100° C. for 15 min. The samples were then incubated in an ice bath for 5 min and centrifuged at 14000 g for 1 min at 4° C., and the supernatants were mixed well as loading samples for the Western Blot assay. The samples were loaded into wells of a 10% precast gel (KeyGEN) with a loading volume of 10 μL (total protein: 5 μg), a sufficient Tris-MOPS-SDS running buffer (Adamas) was added, and then electrophoresis was performed at a constant voltage of 120 V for 55 min. After the electrophoresis, the proteins on the gel were transferred to PVDF membranes at a constant current of 250 mA for 55 min. After the membrane transfer, the PVDF membranes were incubated in 1× Quick Block blocking buffer (Beyotime)at room temperature for 30 min. After the blocking, the PVDF membranes were separately incubated at 4° C. overnight with the KRAS antibody (Abcam) diluted in a ratio of 1:1000 and the β-actin antibody (Abcam) diluted in a ratio of 1:2000 in 5% BSA as the diluent, and then washed with 1×TBST buffer (2.4 g of Tris, 8.8 g of NaCl, 1.5 mL of Tween 20, with pH adjusted to 7.4, with the volume brought to 1 L) 3 times for 10 min/time. The membranes were incubated with a secondary antibody (Abcam) diluted in 5% BSA at room temperature for 2 h, and then washed with 1×TBST buffer 3 times for 10 min/time. Finally, the membranes were incubated with Clarity Western ECL Substrate (BIO-RAD) for 5 min for luminescence and color development, and a ChemiScope 6200 Touch chemiluminescence imaging system (Clinx) was used for color development and protein mapping. Gray value analysis of the protein maps was performed using the chemiluminescence analysis software (Clinx). […]

The target in assay [7] is T2, KRAS G12V protein in SW900 cells (Homo sapiens, UniProt P01116, G12V).
T2 construct: endogenous in cells; host or cells: SW900
As to the kind of experiment: KRAS degradation assay (Western Blot) in SW900 cells. As to conditions: 24 h. In short, it runs like this:
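5×10^5 cells/well; cpd 0.03–3000 nM final, 0.25% DMSO, 24 h, 37 °C/5% CO2. RIPA lysis, 5 µg protein/lane, anti-KRAS WB, β-actin loading ref. DC50/Dmax by nonlinear fit.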
(In general: In western blotting, separated proteins are transferred to a membrane and probed.)

In assay [8] the test system is KRAS G12D mutant human gastric cancer cell AGS. As to the kind of experiment: 3D cell proliferation inhibition assay, AGS. As to conditions: 168 h, 3D culture, 7 days, CTG. In short, it runs like this:
as §1

Assay [9] deals with KRAS G12D mutant human metastatic pancreatic cancer cell AsPc-1. As to the kind of experiment: 3D cell proliferation inhibition assay, AsPc-1. As to conditions: ASPC1, 168 h, 3D culture, 7 days, CTG. In short, it runs like this:
as §1

Assay [10] addresses T3, KRAS G12V protein in SW620 cells (Homo sapiens, UniProt P01116, G12V).
T3 construct: endogenous in cells; host or cells: SW620
As to the kind of experiment: KRAS degradation assay (Western Blot) in SW620 cells. In short, it runs like this:
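Western blot read-out: KRAS band gray value divided by β-actin, compared with DMSO control to give degradation rate. DC50 and Dmax came from log concentration–response fits after 24 h compound exposure (0.03–3000 nM final, 0.25% DMSO) at 37 °C, 5% CO2.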

The subject of assay [11] is KRAS G13D mutant human colorectal cancer epithelial cell DLD-1. As to the kind of experiment: 3D cell proliferation inhibition assay, DLD-1. As to conditions: DLD-1, 168 h, 3D culture, 7 days, CTG. In short, it runs like this:
as §1

Assay [12] deals with T4, KRAS G13D protein in DLD-1 cells (Homo sapiens, UniProt P01116, G13D).
T4 construct: endogenous in cells; host or cells: DLD-1
As to the kind of experiment: KRAS degradation assay (Western Blot) in DLD-1 cells. As to conditions: 24 h.
Source text: as §2, §3, §4

The term IC50 denotes the concentration needed to halve the response being measured. Low readings indicate greater potency, high ones weaker potency. Broadly, the DC50 is the concentration giving 50% degradation. Read a high DC50 as degradation only at high concentration. By Dmax is commonly meant the greatest extent of degradation seen.

T1 sequence (P01116 1-188 isoform P01116-2 G12D): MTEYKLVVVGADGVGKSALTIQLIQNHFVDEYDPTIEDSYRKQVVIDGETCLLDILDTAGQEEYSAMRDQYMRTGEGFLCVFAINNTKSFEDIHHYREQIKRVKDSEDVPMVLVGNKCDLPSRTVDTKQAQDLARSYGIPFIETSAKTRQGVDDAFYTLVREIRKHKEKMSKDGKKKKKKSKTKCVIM
T2 sequence (P01116 1-188 isoform P01116-2 G12V): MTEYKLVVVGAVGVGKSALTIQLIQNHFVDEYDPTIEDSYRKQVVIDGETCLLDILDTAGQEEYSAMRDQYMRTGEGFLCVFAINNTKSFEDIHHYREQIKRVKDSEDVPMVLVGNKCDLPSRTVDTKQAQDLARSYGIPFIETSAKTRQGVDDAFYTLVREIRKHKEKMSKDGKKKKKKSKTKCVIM
T4 sequence (P01116 1-188 isoform P01116-2 G13D): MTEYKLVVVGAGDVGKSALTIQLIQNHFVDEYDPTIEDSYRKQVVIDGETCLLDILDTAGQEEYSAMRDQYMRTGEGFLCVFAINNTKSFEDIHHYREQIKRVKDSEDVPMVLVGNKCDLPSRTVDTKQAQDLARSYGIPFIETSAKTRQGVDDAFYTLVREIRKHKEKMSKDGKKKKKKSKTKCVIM
T3 sequence (P01116 1-188 isoform P01116-2 G12V): as the sequence (P01116 1-188 isoform P01116-2 G12V) above

For `C#Cc1c(F)ccc2cc(O)cc(-c3ncc4c(N5CCCC(C)(N)C5)nc(OCC5(CN6CCN(CC7CCC8(CC7)CCN(C(=O)c7ccc(OC)c(N9CCC(=O)NC9=O)c7)CC8)CC6)CC5)nc4c3F)c12` (centres unmarked) [Example 163, 1-(5-(9-((4-((1-(((4-(3-amino-3-methylpiperidin-1-yl)-7-(8-ethynyl-7-fluoro-3-hydroxynaphthalen-1-yl)-8-fluoropyrido[4,3-d]pyrimidin-2-yl)oxy)methyl)cyclopropyl)methyl)piperazin-1-yl)methyl)-3-azaspiro[5.5]undecane-3-carbonyl)-2-methoxyphenyl)dihydropyrimidine-2,4(1H,3H)-dione], the IC50 was 564 nM in assay [1]; 367 nM in [2]; 235 nM in assay [3]; 285 nM in assay [4]; 420 nM in assay [5]; 588 nM in [8]. For the same compound, in assay [9], inhibition was half-maximal at 368 nM (IC50). Moreover, the half-maximal degradation concentration (DC50) was determined as 185 nM in assay [6] and 251 nM in [7]. In addition, the Dmax was 89% in [6] and 71% in assay [7].

Turning to `C#Cc1c(F)ccc2cc(O)cc(-c3ncc4c(N5CCOCC(C)(O)C5)nc(OCC5(CN6CCN(CC7CCC8(CC7)CCN(C(=O)c7ccc(OC)c(N9CCC(=O)NC9=O)c7)CC8)CC6)CC5)nc4c3F)c12` (centres unmarked) [Example 165, 1-(5-(9-((4-((1-(((7-(8-ethynyl-7-fluoro-3-hydroxynaphthalen-1-yl)-8-fluoro-4-(6-hydroxy-6-methyl-1,4-oxazepan-4-yl)pyrido[4,3-d]pyrimidin-2-yl)oxy)methyl)cyclopropyl)methyl)piperazin-1-yl)methyl)-3-azaspiro[5.5]undecane-3-carbonyl)-2-methoxyphenyl)dihydropyrimidine-2,4(1H,3H)-dione], the results for the DC50 in [10] (24 h), in [6] and in assay [7] were 7.6 nM, 13.4 nM and 5.9 nM, respectively. In addition, the Dmax in [10] (SW-620, 24 h) is 100%; in assay [6] it was 100%; in [7], 100%. The IC50 came to 108 nM in assay [1]; 52.5 nM in assay [2]; 15.6 nM in [3]; 4.58 nM in assay [4]; 7.23 nM in [5]; 27.8 nM in assay [8]. For the same compound, the IC50 in assay [11] amounted to 18.9 nM; in assay [9], 18.6 nM.

For `CCc1c(F)ccc2cc(O)cc(-c3ncc4c(N5CCC[C@@](C)(O)C5)nc(OCC5(CN6CCN(CC7CCC8(CC7)CCN(C(=O)c7ccc(OC)c(N9CCC(=O)NC9=O)c7)CC8)CC6)CC5)nc4c3F)c12` [Example 42, (R)-1-(5-(9-((4-((1-(((7-(8-ethyl-7-fluoro-3-hydroxynaphthalen-1-yl)-8-fluoro-4-(3-hydroxy-3-methylpiperidin-1-yl)pyrido[4,3-d]pyrimidin-2-yl)oxy)methyl)cyclopropyl)methyl)piperazin-1-yl)methyl)-3-azaspiro[5.5]undecane-3-carbonyl)-2-methoxyphenyl)dihydropyrimidine-2,4(1H,3H)-dione], the IC50 is 100 to 500 nM in assay [1]; at most 50 nM in assay [2]; at most 50 nM in assay [3]; 2.15 nM in [4]; at most 50 nM in assay [5]; at most 50 nM in assay [8]. The IC50 in [11] and in assay [9] was at most 50 nM in each case. For the same compound, the DC50 in assay [12] and in assay [7] was at most 50 nM each time. Besides, the Dmax in [12] and in assay [7] was 80 to 100% in each case.

Take `CCc1cccc2cc(O)cc(-c3ccc4c(N5CCC[C@@](C)(O)C5)nc(OCC5(CN6CCN(CC7CCC8(CC7)CCN(C(=O)c7ccc(C)c(N9CCC(=O)NC9=O)c7)CC8)CC6)CC5)nc4c3F)c12` [Example 49, (R)-1-(5-(9-((4-((1-(((7-(8-ethyl-3-hydroxynaphthalen-1-yl)-8-fluoro-4-(3-hydroxy-3-methylpiperidin-1-yl)quinazolin-2-yl)oxy)methyl)cyclopropyl)methyl)piperazin-1-yl)methyl)-3-azaspiro[5.5]undecane-3-carbonyl)-2-methylphenyl)dihydropyrimidine-2,4(1H,3H)-dione]: the IC50 was 39.2 nM in [2]; 527 nM in assay [3]; 27.4 nM in assay [4]; 67.4 nM in assay [5]; 46.1 nM in assay [11]. Further, the 50% degradation concentration (DC50) in assay [6] stood at 822 nM; in assay [7], 62.9 nM. Further, the values for the Dmax in assay [6] and in [7] were 57% and 75.3%, respectively.

As for `C#Cc1cccc2cc(O)cc(-c3ncc4c(N5CCCOCC5)nc(OCC5(CN6CCN(CC7CCC8(CC7)CCN(C(=O)c7ccc(OC)c(N9CCC(=O)NC9=O)c7)CC8)CC6)CC5)nc4c3F)c12` [Example 39, 1-(5-(9-((4-((1-(((7-(8-ethynyl-3-hydroxynaphthalen-1-yl)-8-fluoro-4-(1,4-oxazepan-4-yl)pyrido[4,3-d]pyrimidin-2-yl)oxy)methyl)cyclopropyl)methyl)piperazin-1-yl)methyl)-3-azaspiro[5.5]undecane-3-carbonyl)-2-methoxyphenyl)dihydropyrimidine-2,4(1H,3H)-dione], the IC50 came to 35.6 nM in assay [4], 11.6 nM in assay [5] and 86.6 nM in assay [11]. Besides, the DC50 in [6] and in assay [7] was at most 50 nM throughout. Also, the figures for the Dmax in assay [6] and in assay [7] were 50 to 80% and 80 to 100%, respectively.

Values taken from US20260167622A1, “PAN-KRAS DEGRADING AGENT, AND PREPARATION METHOD THEREFOR AND USE THEREOF” (LEADINGTAC PHARMACEUTICAL (SHAOXING) CO., LTD., priority 2022, published 2026).
